# Reference: ChEMBL document CHEMBL1201862, “PubChem BioAssay data set” (2004)
#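 Method: 48-hour compound exposure of cells in 96-well plates, five concentrations, linear interpolation of endpoints. At the GI50, growth is halved.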 The source made the active and inactive calls. Cut-off read from the data, not from the text of the source: active = GI50 up to about 1.1 µM and inactive = higher.
# Columns and labels:
# Experiment in all cases: NCI-60 cell line screen, 48 h
# 786-0 = system: 786-0
# ACHN = system: ACHN
# BT-549 = system: BT-549
# DLD-1 = system: DLD-1
# DMS-114 = system: DMS-114
# DMS-273 = system: DMS-273
# DU-145 = system: DU-145
# HCC 2998 = system: HCC 2998
# HCT-15 = system: HCT-15
# HL-60 = system: HL-60
# HOP-18 = system: HOP-18
# HOP-92 = system: HOP-92
# Hs-578T = system: Hs-578T
# KM-20L2 = system: KM-20L2
# M14 = system: M14
# M19-MEL = system: M19-MEL
# MDA-MB-231 = system: MDA-MB-231
# MDA-MB-435 = system: MDA-MB-435
# MDA-N = system: MDA-N
# NCI-H460 = system: NCI-H460
# NCI-H522 = system: NCI-H522
# NCI/ADR-RES = system: NCI/ADR-RES
# OVCAR-4 = system: OVCAR-4
# PC-3 = system: PC-3
# RXF 393 = system: RXF 393
# SNB-78 = system: SNB-78
# SR = system: SR
# T47D = system: T47D
# TK-10 = system: TK-10
# UO-31 = system: UO-31
# XF498 = system: XF498
# A498 = system: A498
# A549 = system: A549
# CAKI-1 = system: CAKI-1
# CCRF-CEM = system: CCRF-CEM
# COLO 205 = system: COLO 205
# EKVX = system: EKVX
# HCT-116 = system: HCT-116
# HOP-62 = system: HOP-62
# HT-29 = system: HT-29
# IGROV-1 = system: IGROV-1
# K562 = system: K562
# KM12 = system: KM12
# LOX IMVI = system: LOX IMVI
# MCF7 = system: MCF7
# MOLT-4 = system: MOLT-4
# Malme-3M = system: Malme-3M
# NCI-H226 = system: NCI-H226
# NCI-H23 = system: NCI-H23
# OVCAR-3 = system: OVCAR-3
# OVCAR-5 = system: OVCAR-5
# OVCAR-8 = system: OVCAR-8
# RPMI-8226 = system: RPMI-8226
# SF-268 = system: SF-268
# SF-295 = system: SF-295
# SF-539 = system: SF-539
# SK-MEL-28 = system: SK-MEL-28
# SK-MEL-2 = system: SK-MEL-2
# SK-MEL-5 = system: SK-MEL-5
# SK-OV-3 = system: SK-OV-3
# SN12C = system: SN12C
# SNB-19 = system: SNB-19
# SNB-75 = system: SNB-75
# SW-620 = system: SW-620
# U-251 = system: U-251
# UACC-257 = system: UACC-257
# UACC-62 = system: UACC-62
structure (smiles),measurement,setting,value
CCCCCC(O)C1C(=O)OC(C)C(O)/C=C/C=C/C=C/C=C/C=C(\C)C(O)C(O)C(O)CC(O)CC(O)CC(O)CC(O)CC1O (configuration not stated),GI50,786-0,> 100 µM (inactive)
same,GI50,ACHN,> 100 µM (inactive)
same,GI50,BT-549,> 100 µM (inactive)
same,GI50,DLD-1,1.6 µM (inactive)
same,GI50,DMS-114,1.53 µM (inactive)
same,GI50,DMS-273,1.34 µM (inactive)
same,GI50,DU-145,> 100 µM (inactive)
same,GI50,HCC 2998,1.76 µM (inactive)
same,GI50,HCT-15,2420 nM
same,GI50,HL-60,> 100 µM (inactive)
same,GI50,HOP-18,2.48 µM (inactive)
same,GI50,HOP-92,1.71 µM (inactive)
same,GI50,Hs-578T,> 100 µM (inactive)
same,GI50,KM-20L2,2.28 µM (inactive)
same,GI50,M14,> 100 µM (inactive)
same,GI50,M19-MEL,1.24 µM (inactive)
same,GI50,MDA-MB-231,> 100 µM (inactive)
same,GI50,MDA-MB-435,> 100 µM (inactive)
same,GI50,MDA-N,> 100 µM (inactive)
same,GI50,NCI-H460,1.56 µM (inactive)
same,GI50,NCI-H522,1.73 µM (inactive)
same,GI50,NCI/ADR-RES,1.51 µM (inactive)
same,GI50,OVCAR-4,1.82 µM (inactive)
same,GI50,PC-3,> 100 µM (inactive)
same,GI50,RXF 393,1.41 µM (inactive)
same,GI50,SNB-78,1.88 µM (inactive)
same,GI50,SR,> 100 µM (inactive)
same,GI50,T47D,> 100 µM (inactive)
same,GI50,TK-10,> 100 µM (inactive)
same,GI50,UO-31,1.79 µM (inactive)
same,GI50,XF498,1.49 µM (inactive)
COc1cc(/C=C/C(=O)Oc2ccccc2)ccc1C(=O)O/C=C/c1ccccc1,GI50,786-0,> 100 µM (inactive)
same,GI50,A498,> 21.5 µM (inactive)
same,GI50,A549,> 100 µM (inactive)
same,GI50,ACHN,> 100 µM (inactive)
same,GI50,BT-549,> 100 µM (inactive)
same,GI50,CAKI-1,> 100 µM (inactive)
same,GI50,CCRF-CEM,17.7 µM (inactive)
same,GI50,COLO 205,> 100 µM (inactive)
same,GI50,DLD-1,> 100 µM (inactive)
same,GI50,DMS-114,> 100 µM (inactive)
same,GI50,DMS-273,> 100 µM (inactive)
same,GI50,DU-145,> 100 µM (inactive)
same,GI50,EKVX,> 100 µM (inactive)
same,GI50,HCC 2998,> 100 µM (inactive)
same,GI50,HCT-116,> 100 µM (inactive)
same,GI50,HCT-15,> 100000 nM
same,GI50,HL-60,> 100 µM (inactive)
same,GI50,HOP-18,> 100 µM (inactive)
same,GI50,HOP-62,> 100 µM (inactive)
same,GI50,HOP-92,> 100 µM (inactive)
same,GI50,HT-29,> 100 µM (inactive)
same,GI50,Hs-578T,> 100 µM (inactive)
same,GI50,IGROV-1,> 100 µM (inactive)
same,GI50,K562,> 100 µM (inactive)
same,GI50,KM-20L2,> 100 µM (inactive)
same,GI50,KM12,> 100 µM (inactive)
same,GI50,LOX IMVI,> 100 µM (inactive)
same,GI50,M14,> 100 µM (inactive)
same,GI50,M19-MEL,> 100 µM (inactive)
same,GI50,MCF7,> 100 µM (inactive)
same,GI50,MDA-MB-231,> 100 µM (inactive)
same,GI50,MDA-MB-435,> 100 µM (inactive)
same,GI50,MDA-N,> 100 µM (inactive)
same,GI50,MOLT-4,> 93.3 µM (inactive)
same,GI50,Malme-3M,> 100 µM (inactive)
same,GI50,NCI-H226,> 100 µM (inactive)
same,GI50,NCI-H23,> 100 µM (inactive)
same,GI50,NCI-H460,> 100 µM (inactive)
same,GI50,NCI-H522,> 100 µM (inactive)
same,GI50,NCI/ADR-RES,> 100 µM (inactive)
same,GI50,OVCAR-3,> 31.6 µM (inactive)
same,GI50,OVCAR-4,> 100 µM (inactive)
same,GI50,OVCAR-5,> 100 µM (inactive)
same,GI50,OVCAR-8,> 100 µM (inactive)
same,GI50,PC-3,> 100 µM (inactive)
same,GI50,RPMI-8226,> 100 µM (inactive)
same,GI50,RXF 393,> 100 µM (inactive)
same,GI50,SF-268,> 100 µM (inactive)
same,GI50,SF-295,> 100 µM (inactive)
same,GI50,SF-539,> 100 µM (inactive)
same,GI50,SK-MEL-28,> 100 µM (inactive)
same,GI50,SK-MEL-2,> 100 µM (inactive)
same,GI50,SK-MEL-5,> 100 µM (inactive)
same,GI50,SK-OV-3,> 100 µM (inactive)
same,GI50,SN12C,> 100 µM (inactive)
same,GI50,SNB-19,> 100 µM (inactive)
same,GI50,SNB-75,> 100 µM (inactive)
same,GI50,SNB-78,> 100 µM (inactive)
same,GI50,SW-620,> 100 µM (inactive)
same,GI50,T47D,> 100 µM (inactive)
same,GI50,TK-10,> 100 µM (inactive)
same,GI50,U-251,> 100 µM (inactive)
same,GI50,UACC-257,> 100 µM (inactive)
same,GI50,UACC-62,> 100 µM (inactive)
same,GI50,UO-31,> 100 µM (inactive)
same,GI50,XF498,> 100 µM (inactive)
